This note sets out measurements from ChEMBL document CHEMBL1255340, “In vitro activities of the Rx-01 oxazolidinones against hospital and community pathogens” (2008).

What all share (format): functional
The test system of one assay is Haemophilus influenzae. Put plainly: Antimicrobial activity against Haemophilus influenzae.
For the next assay, the system named is Metamycoplasma hominis. The experiment in a line: Antimicrobial activity against Mycoplasma hominis isolated from human respiratory tract by broth microdilution method. On the technique in general: In broth dilution the organism is exposed to a series of concentrations in liquid medium.
Another assay concerns Chlamydia trachomatis. The experiment in a line: Antimicrobial activity against Chlamydia trachomatis isolated from human respiratory tract by broth microdilution method.
The next assay deals with Chlamydia pneumoniae. Put plainly: Antimicrobial activity against Chlamydophila pneumoniae isolated from human respiratory tract by broth microdilution method.

Values after ≈ are worked out from the molar mass of the structure shown. Values joined by “and” are separate entries in the source; they are usually repeats but may differ in a detail not shown here. Identical values can stand only once.

As to `C[C@H]1COc2c(N3CCN(C)CC3)c(F)cc3c(=O)c(C(=O)O)cn1c23.C[C@H]1COc2c(N3CCN(C)CC3)c(F)cc3c(=O)c(C(=O)O)cn1c23.O` [LEVOFLOXACIN], the MIC came out at 0.016 µg/mL against Haemophilus influenzae and 0.008 µg/mL with Haemophilus influenzae (Haemophilus influenzae, read-out: MIC).
On to `CC[C@H]1OC(=O)[C@H](C)[C@@H](O[C@H]2C[C@@](C)(OC)[C@@H](O)[C@H](C)O2)[C@H](C)[C@@H](O[C@@H]2O[C@H](C)C[C@H](N(C)C)[C@H]2O)[C@](C)(O)C[C@@H](C)C(=O)[C@H](C)[C@@H](O)[C@]1(C)O` [ERYTHROMYCIN], for which the MIC was 16 µg/mL and 32 µg/mL with Metamycoplasma hominis; 0.12 µg/mL and 0.25 µg/mL in the assay with Chlamydia trachomatis; 0.5 µg/mL (≈ 0.681 µM) in the assay on Chlamydia pneumoniae.
